# Measurements published in article PMC7177633, “Effective Cellular Transport of Ortho-Halogenated Sulfonamide Derivatives of Metformin Is Related to Improved Antiproliferative Activity and Apoptosis Induction in MCF-7 Cells” (International Journal of Molecular Sciences, 2020).
# Read-outs that look alike come from different tables or passages of the source.
# Legend:
# MDA-MB-231 cells [1] = test: Annexin V-FITC/PI apoptosis assay, MDA-MB-231; assay type: cell-based, human; conditions: for Early Apoptotic [E+−] / Late Apoptotic [E++] / Living Cells [E−−] / Necrotic Cells [E−+] / Single Cells in Gate B: MDA-MB-231, 24 h
# Procedure: MCF-7 and MDA-MB-231 cells were seeded at a density of 5 × 10^4 per well on 24-well plates and incubated for 24 h (37 °C, 5% CO2) to obtain 70 % confluency. Then, the medium (control) or medium with the tested compounds in a volume of 250 μL was added and incubated for another 24 h. The cells were harvested using accutase (Sigma Aldrich, St. Louis, MO, USA) as a detaching reagent, collected to Eppendorf tubes and centrifuged (1100 rpm, 5 min). Afterwards, the cells were resuspended in 1 mL of a cold cell-staining buffer (Biolegend, London UK) and washed twice with a cell-staining buffer. The final step included suspension of the cell pellets in 100 μL of a binding buffer, staining with propidine iodide (PI; 10 μL) and FITC-annexin solutions (AV; 5 μL) (FITC Annexin V Apoptosis Detection Kit with PI (Biolegend, UK)). The samples were incubated for 20 min at room temperature in the dark, followed by an analysis conducted on a cytometer (CytoFlex, blue laser, 480 nm, Beckman-Coulter, Indianapolis, IN, USA). The results were analyzed using Kaluza 2.1 (Beckman-Coulter) software.
# Annexin V (−) and PI (−) cells were considered living cells, annexin V (+) and PI (−) as early-apoptotic cells, annexin V (+) and PI (+) as late-apoptotic cells and annexin V (−) and PI (+) as necrotic cells.
# The experiments were conducted in triplicates (n = 3). The coefficients of variation for the assay were determined (CV = 0.97–13.62%, depending on the calculated cell population).
# MDA-MB-231 cells [2] = test: Cellular uptake of metformin sulfonamides in MDA-MB-231 cells (HPLC); assay type: in vitro ADME, human; conditions: for transport efficacy (Vmax/Km) in MCF-7 relative to MDA-MB-231: fold lower in MDA-MB-231 than in MCF-7
# In short: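 MCF-7 or MDA-MB-231 cells exposed to 10−3000 μmol/L compound in HBSS at 37 °C for 10 min, washed with ice-cold HBSS, then lysed in 0.1 M NaOH. Intracellular compound quantified by reversed-phase HPLC-UV at 235 nm against standards spiked on cell layers. Protein by Bradford; quadruplicates.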
# [3] = MDA-MB-231, 3000 uM, representative cytogram Figure 7B
# [4] = Comp. 1 and 4 1500 μmol/L, Comp. 7 1300 μmol/L (½ × IC50)
# [5] = Comp. 1 and 4 3000 μmol/L, Comp. 7 2600 (IC50)
# [6] = Eadie-Hofstee analysis, transporter I
# [7] = Eadie-Hofstee analysis, transporter I, read-out: Km, transporter I, MDA-MB-231
# [8] = Eadie-Hofstee analysis, transporter II
# [9] = Eadie-Hofstee analysis, transporter II, read-out: Km, transporter II, MDA-MB-231
SMILES,Early Apoptotic [E+−] (MDA-MB-231 cells [1]; [4]),Late Apoptotic [E++] (MDA-MB-231 cells [1]; [4]),Living Cells [E−−] (MDA-MB-231 cells [1]; [4]),Necrotic Cells [E−+] (MDA-MB-231 cells [1]; [4]),Single Cells in Gate B (MDA-MB-231 cells [1]; [4]),Early Apoptotic [E+−] (MDA-MB-231 cells [1]; [5]),Late Apoptotic [E++] (MDA-MB-231 cells [1]; [5]),Living Cells [E−−] (MDA-MB-231 cells [1]; [5]),Necrotic Cells [E−+] (MDA-MB-231 cells [1]; [5]),Single Cells in Gate B (MDA-MB-231 cells [1]; [5]),"Vmax, transporter I, MDA-MB-231 (MDA-MB-231 cells [2]; [6])",Km (MDA-MB-231 cells [2]; [7]),"Vmax, transporter II, MDA-MB-231 (MDA-MB-231 cells [2]; [8])",Km (MDA-MB-231 cells [2]; [9]),transport efficacy (Vmax/Km) in MCF-7 relative to MDA-MB-231 (MDA-MB-231 cells [2]),also measured
CN(C)C(=N)N=C(N)NS(=O)(=O)c1ccccc1Br [Compound 4],7.74 ± 0.91 %,13.30 ± 0.66 %,72.64 ± 1.76 %,6.31 ± 0.26 %,93.37 ± 0.34%,6.85 ± 0.34 %,36.51 ± 3.36 %,49.49 ± 2.31 %,7.15 ± 1.45 %,90.59 ± 0.70 %,10.27 ± 1.18 nmol/min/mg,5.52 ± 0.748 mM,21.44 ± 4.03 nmol/min/mg,11.6 ± 2.44 mM,,"Early apoptosis (representative cytogram) (MDA-MB-231 cells [1]; [3]): 6.91%; Late apoptosis (representative cytogram) (MDA-MB-231 cells [1]; [3]): 34.48%; Live cells (representative cytogram) (MDA-MB-231 cells [1]; [3]): 51.21%; Necrotic cells (representative cytogram) (MDA-MB-231 cells [1]; [3]): 7.40%; uptake into MDA-MB-231 cells (MDA-MB-231 cells [2]; 800 μmol/L, 10 min incubation, 37 °C): 1.3 ± 0.21 nmol/min/mg protein; uptake in MDA-MB-231 relative to MCF-7 (MDA-MB-231 cells [2]; fold more efficient in MDA-MB-231 than in MCF-7): approximately 130 fold"
CN(C)C(=N)N=C(N)NS(=O)(=O)c1ccccc1F [Compound 7],8.78 ± 0.63 %,18.89 ± 2.67 %,68.26 ± 3.51 %,4.06 ± 1.75%,93.75 ± 0.41%,6.39 ± 0.16 %,35.54 ± 2.67 %,50.40 ± 4.95 %,7.66 ± 2.93 %,91.60 ± 0.48 %,0.262 ± 0.035 nmol/min/mg,1.53 ± 0.298 mM,0.443 ± 0.026 nmol/min/mg,2.25 ± 0.19 mM,10 fold,
CN(C)C(=N)N=C(N)NS(=O)(=O)c1ccccc1Cl [Compound 1],7.66 ± 0.06 %,8.06 ± 0.81 %,81.55 ± 1.65%,2.74 ± 0.98%,94.34 ± 0.26%,9.96 ± 0.92 %,31.41 ± 3.46 %,53.83%,4.81 ± 0.60%,91.85 ± 0.37 %,0.0182 ± 0.0026 nmol/min/mg,3.07 ± 0.562 mM,0.0261 ± 0.0040 nmol/min/mg,3.3 ± 0.625 mM,over 370 fold,"Living Cells [E−−] (MDA-MB-231 cells [1]; Comp. 1 and 4 1500 μmol/L, Comp. 7 1300 μmol/L (½ × IC50), listed as Comp. 1): 81.55 ± 1.65 %; Living Cells [E−−] (MDA-MB-231 cells [1]; Comp. 1 and 4 3000 μmol/L, Comp. 7 2600 (IC50), listed as Comp. 1): 53.83 ± 3.87 %; Vmax MDA-231 cells (Michaelis Menten curves) (MDA-MB-231 cells [2]; Michaelis-Menten curve): 0.047 ± 0.065 nmol/min/mg; Km (MDA-MB-231 cells [2]; Michaelis-Menten curve, read-out: Km MDA-231 cells (Michaelis Menten curves)): 8.3 ± 3.27 mM"
